Measured values as given in doi:10.1101/2025.06.05.658145v1 (biorxiv, 2025).

Tests used:
JaTyrAnc [1] = experiment: NADPH formation at […] nm, Michaelis-Menten fit; assay type: biochemical, Joinvillea ascendens; details: 1 mM NADP+, 50 mM HEPES pH 7.5, 50 mM KCl, 37 °C
SaTyrA1 [2] = experiment: NADPH formation at […] nm, Michaelis-Menten fit; assay type: biochemical, Streptochaeta angustifolia; details: 1 mM NADP+, 50 mM HEPES pH 7.5, 50 mM KCl, 37 °C
SaTyrAnc [3] = experiment: NADPH formation at […] nm, Michaelis-Menten fit; assay type: biochemical, Streptochaeta angustifolia; details: 1 mM NADP+, 50 mM HEPES pH 7.5, 50 mM KCl, 37 °C
JaTyrA1 [4] = experiment: NADPH formation at […] nm, Michaelis-Menten fit; assay type: biochemical, Joinvillea ascendens; details: 1 mM NADP+, 50 mM HEPES pH 7.5, 50 mM KCl, 37 °C
AcTyrA1 [5] = experiment: NADPH formation at […] nm, Michaelis-Menten fit; assay type: biochemical, Ananas comosus; details: 1 mM NADP+, 50 mM HEPES pH 7.5, 50 mM KCl, 37 °C
AcTyrAnc [6] = experiment: NADPH formation at […] nm, Michaelis-Menten fit; assay type: biochemical, Ananas comosus; details: 1 mM NADP+, 50 mM HEPES pH 7.5, 50 mM KCl, 37 °C
OsTyrA1 [7] = target: T1, OsTyrA1 (Oryza sativa, UniProt Q5Z9H5); details: read-out: IC50 (µM Tyr); 500 uM arogenate, 1 mM NADP+; inhibitor
T1 sequence (Q5Z9H5 46-353): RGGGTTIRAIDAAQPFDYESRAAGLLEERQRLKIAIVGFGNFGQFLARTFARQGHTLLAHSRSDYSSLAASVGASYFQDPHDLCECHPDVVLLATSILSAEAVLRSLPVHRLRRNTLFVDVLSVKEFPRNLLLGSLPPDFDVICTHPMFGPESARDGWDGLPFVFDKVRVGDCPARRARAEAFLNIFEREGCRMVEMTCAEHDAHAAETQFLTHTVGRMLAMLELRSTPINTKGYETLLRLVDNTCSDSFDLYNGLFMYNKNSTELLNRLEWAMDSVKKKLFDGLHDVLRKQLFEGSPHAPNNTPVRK

JaTyrAnc [8] = details: competitive model; 500 µM arogenate, 1 mM NADP+, pH 7.5, 37 °C
OsTyrAnc [9] = target: T2, OsTyrAnc (Oryza sativa, UniProt Q5Z6Y1); details: competitive model; 500 µM arogenate, 1 mM NADP+, pH 7.5, 37 °C
T2 sequence (Q5Z6Y1 50-342): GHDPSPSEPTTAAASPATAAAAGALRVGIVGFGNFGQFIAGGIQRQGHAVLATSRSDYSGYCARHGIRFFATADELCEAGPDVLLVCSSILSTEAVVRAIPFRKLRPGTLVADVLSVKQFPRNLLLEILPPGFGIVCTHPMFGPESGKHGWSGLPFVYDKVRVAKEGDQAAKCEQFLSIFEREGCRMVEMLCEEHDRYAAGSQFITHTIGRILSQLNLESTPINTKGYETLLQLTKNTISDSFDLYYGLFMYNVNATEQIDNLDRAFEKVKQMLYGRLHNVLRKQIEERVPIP

AcTyrAnc [10] = details: competitive model; 500 µM arogenate, 1 mM NADP+, pH 7.5, 37 °C
ZmTyrAnc [11] = target: T3, ZmTyrAnc (Zea mays, UniProt C0PK73); details: competitive model; 500 µM arogenate, 1 mM NADP+, pH 7.5, 37 °C
T3 sequence (C0PK73 50-392): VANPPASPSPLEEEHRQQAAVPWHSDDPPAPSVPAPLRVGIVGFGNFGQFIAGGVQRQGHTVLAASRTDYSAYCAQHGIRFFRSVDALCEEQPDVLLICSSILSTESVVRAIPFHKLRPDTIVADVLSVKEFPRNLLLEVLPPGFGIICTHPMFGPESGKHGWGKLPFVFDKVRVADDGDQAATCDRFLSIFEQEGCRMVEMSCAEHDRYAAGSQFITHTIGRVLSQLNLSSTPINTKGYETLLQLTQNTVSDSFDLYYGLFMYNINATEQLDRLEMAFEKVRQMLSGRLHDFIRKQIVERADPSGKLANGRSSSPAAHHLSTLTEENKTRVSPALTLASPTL

JaTyrA1 [12] = details: competitive model; 500 µM arogenate, 1 mM NADP+, pH 7.5, 37 °C
ZmTyrAnc [13] = target: T3, ZmTyrAnc; details: read-out: IC50 (µM Tyr); 500 uM arogenate, 1 mM NADP+; inhibitor
OsTyrA1 [14] = target: T1, OsTyrA1; details: competitive model; 500 µM arogenate, 1 mM NADP+, pH 7.5, 37 °C
AcTyrA1 [15] = details: competitive model; 500 µM arogenate, 1 mM NADP+, pH 7.5, 37 °C
OsTyrAnc [16] = target: T2, OsTyrAnc; details: read-out: IC50 (µM Tyr); 500 uM arogenate, 1 mM NADP+; inhibitor
SaTyrA1 [17] = details: competitive model; 500 µM arogenate, 1 mM NADP+, pH 7.5, 37 °C
SaTyrAnc [18] = details: competitive model; 500 µM arogenate, 1 mM NADP+, pH 7.5, 37 °C

Row | Km (JaTyrAnc [1]) | Km (SaTyrA1 [2]) | Km (SaTyrAnc [3]) | Km (JaTyrA1 [4]) | Km (AcTyrA1 [5]) | Km (AcTyrAnc [6]) | Compound | IC50 (OsTyrA1 [7]) | Ki (JaTyrAnc [8]) | Ki (OsTyrAnc [9]) | Ki (AcTyrAnc [10]) | Ki (ZmTyrAnc [11]) | Ki (JaTyrA1 [12]) | IC50 (ZmTyrAnc [13]) | Ki (OsTyrA1 [14]) | Ki (AcTyrA1 [15]) | IC50 (OsTyrAnc [16]) | Ki (SaTyrA1 [17]) | Ki (SaTyrAnc [18])
1 | 1900 ± 240 µM | 720 ± 90 µM | 350 ± 20 µM | 730 ± 60 µM | 750 ± 80 µM | 1050 ± 170 µM | N[C@@H](CC1(C(=O)O)C=CC(O)C=C1)C(=O)O (stereo partly drawn) [arogenate] | – | – | – | – | – | – | – | – | – | – | – | –
2 | – | – | – | – | – | – | N[C@@H](Cc1ccc(O)cc1)C(=O)O [tyrosine] | 53 ± 5 µM | 106 ± 19 µM | 78 ± 19 µM | 76 ± 30 µM | 352 ± 13 µM | 24 ± 4 µM | 850 ± 30 µM | 21 ± 2 µM | 12 ± 6 µM | 280 ± 70 µM | 34 ± 23 µM | 35 ± 8 µM
